The source of these data is publication PMC6392429 (ACS infectious diseases, 2018).

The target in series [1] is T1, DENV2 sE2 (Dengue virus type 2, UniProt P14340). The settings on record: assay optimisation, Figure S1.
Series [2] deals with DENV2 NGC. Description: Viral infectivity assay. The settings on record: negative control compound. Type of series: cell-based, dengue virus serotype 2 New Guinea C.
A further series relates to DENV1 WP74. As to the kind of experiment: Plaque reduction assay, DENV1. Type of series: cell-based, dengue virus serotype 1. The settings on record: read-out: PRNT50 DENV1.
The target of a further series is AmpC β-lactamase (Escherichia coli, UniProt P00811).
AmpC β-lactamase, sequence (P00811 20-377): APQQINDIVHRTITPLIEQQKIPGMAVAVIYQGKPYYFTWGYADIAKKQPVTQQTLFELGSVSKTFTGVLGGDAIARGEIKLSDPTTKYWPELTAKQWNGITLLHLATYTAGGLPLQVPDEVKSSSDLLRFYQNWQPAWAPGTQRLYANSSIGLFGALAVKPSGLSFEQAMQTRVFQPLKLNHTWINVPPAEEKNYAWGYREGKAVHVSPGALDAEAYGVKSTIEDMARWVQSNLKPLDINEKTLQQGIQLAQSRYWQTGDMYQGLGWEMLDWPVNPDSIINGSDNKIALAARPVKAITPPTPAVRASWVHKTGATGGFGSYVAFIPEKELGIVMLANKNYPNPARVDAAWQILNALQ
A further series concerns DENV3 THD3. Description: Plaque reduction assay, DENV3. The settings on record: read-out: PRNT50 DENV3. Type of series: cell-based, dengue virus serotype 3.
A short description of series [3]: Microsome stability in vitro. The format is in vitro ADME. The following applies: mouse microsomes in vitro.
The test system of series [4] is E-mediated fusion of DENV2 virions with liposomes. The settings on record: for Inhibition of E-mediated fusion: close to IC90.
For another series, the system named is DENV4 TVP360. Description: Plaque reduction assay, DENV4. Type of series: cell-based, dengue virus serotype 4. The settings on record: read-out: PRNT50 DENV4.
Series [5] has as its target T1, DENV2 sE2. The following applies: biolayer interferometry.
In the next series the test system is ZIKV PF-251013–18. Description: Plaque reduction assay, ZIKV. The following applies: read-out: PRNT50 ZIKV.
The nature of series [6]: Dynamic light scattering, particle size. Type of series: physicochemical.
Another series concerns BHK-21 cells. Type of series: cell-based.
For series [7], the target named is T2, malate dehydrogenase (MDH) (Sus scrofa, UniProt P00346).
T2 sequence (P00346 25-338): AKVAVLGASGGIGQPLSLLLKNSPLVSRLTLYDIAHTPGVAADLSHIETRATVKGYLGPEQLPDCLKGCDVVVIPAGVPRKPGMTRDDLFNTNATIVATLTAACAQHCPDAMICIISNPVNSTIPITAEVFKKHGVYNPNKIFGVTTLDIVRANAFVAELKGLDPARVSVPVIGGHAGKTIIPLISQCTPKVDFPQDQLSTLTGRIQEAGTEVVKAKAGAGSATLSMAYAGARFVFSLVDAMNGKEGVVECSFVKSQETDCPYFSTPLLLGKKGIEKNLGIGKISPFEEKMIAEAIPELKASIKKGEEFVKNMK
Description: Malate dehydrogenase. The format is biochemical.

For series [8], the system named is DENV2 NGC. As to the kind of experiment: Plaque reduction assay, DENV2. Type of series: cell-based, dengue virus serotype 2. The following applies: read-out: PRNT50 DENV2.
The next series relates to VSV-eGFP. Type of series: cell-based, vesicular stomatitis virus.
[9] abbreviates: read-out: IC50 AmpC no TritonX, no Triton X-100.
[10] abbreviates: read-out: IC50 AmpC with TritonX, with 0.01% Triton X-100.
[11] abbreviates: read-out: IC50 MDH no TritonX, no Triton X-100.
Where [12] appears, read: read-out: IC50 MDH with TritonX, with 0.01% Triton X-100.

Structures are written as SMILES. Values joined by “and” are separate entries in the source; they are usually repeats but may differ in a detail not shown here. Equal entries are not always repeated. Where two headings read alike, the source gives them in different places.

Turning to `CN1CCN(c2ccc(Nc3cc(Oc4ccccc4)ncn3)cc2)CC1` [JW-068, N−[4-(4-Methylpiperazin-1-yl)phenyl]-6-phenoxypyrimidin-4-amine], the “Competition with GNF2-biotin for binding to sE2” value at DENV2 sE2 [1] is recorded as “absence of competition”. Moreover, in the series on DENV2 NGC [2], the “Inhibition of DENV2 infection” value was “does not inhibit DENV2 infection”.

Turning to `COc1cc(C(=O)NS(=O)(=O)c2ccccc2C)ccc1Cc1cn(C)c2ccc(NC(=O)OC3CCCC3)cc12` [S1633], the IC50 in the series with DENV1 WP74 (BHK-21 cells, scored) is 1 to 10 µM; at AmpC β-lactamase (setting [9]), 36.6 µM; at AmpC β-lactamase (setting [10]) it was > 100 µM; in the series on DENV3 THD3 (BHK-21 cells, scored), > 10 µM; with DENV4 TVP360 (BHK-21 cells, scored) it was 1 to 10 µM; in the series on ZIKV PF-251013–18 (Vero cells, scored), > 10 µM. The IC50 in [7] (setting [11]) was 48.2 µM; in [7] (setting [12]) it was > 100 µM; in the series on DENV2 NGC [8] (BHK-21 cells, scored), 1 to 10 µM. For the same compound, the “T1/2 (Microsome stability)” value in [3] was 37.7 min. In addition, in [4] (10 μM), the “Inhibition of E-mediated fusion” value is “inhibit E-mediated fusion”. Moreover, the Kd on DENV2 sE2 [5] is 5.2 ± 2.1 µM. Moreover, in [6], the “Particle size at 40 μM with Tween20” value is listed as 9.2 nm. Further, the “Particle size at 40 μM without Tween20” value in series [6] is reported as 823 nm. This compound also registered a CC50 in the series on BHK-21 cells of 50 ± 3 µM.

`Cc1cc(C(C#N)c2ccc(Cl)cc2)c(Cl)cc1NC(=O)c1cc(I)cc(I)c1O` (stereo not drawn) [S4105]: the IC50 was < 1 µM in the series on DENV1 WP74 (BHK-21 cells, scored); ≤ 1 µM in the series on DENV1 WP74 (bound stated); 19.5 µM on AmpC β-lactamase (setting [9]); > 100 µM on AmpC β-lactamase (setting [10]); 1 to 10 µM in the series on DENV3 THD3 (BHK-21 cells, scored); ≤ 10 µM in the series with DENV3 THD3 (bound stated). Also, the IC50 is < 1 µM in the series on DENV4 TVP360 (BHK-21 cells, scored); ≤ 1 µM in the series with DENV4 TVP360 (bound stated); < 1 µM in the series on ZIKV PF-251013–18 (Vero cells, scored); ≤ 1 µM in the series with ZIKV PF-251013–18 (bound stated); 0.3 µM in series [7] (setting [11]); > 100 µM in series [7] (setting [12]). Besides, the IC50 in the series with DENV2 NGC [8] (BHK-21 cells, scored) is < 1 µM; in the series with DENV2 NGC [8] (bound stated) it was ≤ 1 µM. For the same compound, the “T1/2 (Microsome stability)” value in [3] is > 120 min. Further, the “Inhibition of viral fusion (protection of core from trypsin digestion)” value in series [4] (at 5, 1, and 0.5 μM, Western blot) is given as “inhibit viral fusion in a concentration-dependent manner”. On DENV2 sE2 [5], this compound gave a Kd of 0.9 ± 0.3 µM. In addition, the “Inhibition % vs. VSV-eGFP” value in the series with VSV-eGFP was 64% and 60%. Besides, the “Particle size at 40 μM with Tween20” value in [6] was determined as 13.1 nm. Also, the “Particle size at 40 μM without Tween20” value in [6] is 82 nm. In the series with BHK-21 cells, this compound registered a half-maximal cytotoxic concentration (CC50) of 50 ± 15 µM.

With `CN(CC(=O)N(Cc1ccc(C2CCCCC2)cc1)c1ccc(C(=O)O)cc1)S(=O)(=O)c1c(F)c(F)c(F)c(F)c1F` [S7337], the IC50 with DENV1 WP74 (BHK-21 cells, scored) was < 1 µM; in the series with DENV1 WP74 (bound stated), ≤ 1 µM; on AmpC β-lactamase (setting [9]), > 100 µM; at AmpC β-lactamase (setting [10]), > 100 µM; in the series on DENV3 THD3 (bound stated) it was ≤ 10 µM; in the series with DENV4 TVP360 (BHK-21 cells, scored) it was < 1 µM. The IC50 was ≤ 1 µM in the series with DENV4 TVP360 (bound stated); 1 to 10 µM with ZIKV PF-251013–18 (Vero cells, scored); ≤ 10 µM in the series with ZIKV PF-251013–18 (bound stated); 86.4 µM in series [7] (setting [11]); > 100 µM in series [7] (setting [12]); < 1 µM in the series on DENV2 NGC [8] (BHK-21 cells, scored). For the same compound, the IC50 in the series on DENV2 NGC [8] (bound stated) is ≤ 1 µM. Also, in series [3], the “T1/2 (Microsome stability)” value was determined as 3.2 min. Besides, the “Inhibition of E-mediated fusion” value in series [4] (3 μM) is “inhibit E-mediated fusion”. On DENV2 sE2 [5], this compound gave a Kd of 1.3 ± 0.5 µM. In addition, the “Particle size at 40 μM with Tween20” value in series [6] is listed as 8.2 nm. Also, the “Particle size at 40 μM without Tween20” value in series [6] amounted to 144 nm. Further, in the series with BHK-21 cells, half-maximal cytotoxicity (CC50) was put at 13 ± 5 µM.
